Test results from PubChem BioAssay AID256 (DTP/NCI, 2004).
Values joined by “and” are separate entries in the source; they are usually repeats but may differ in a detail not shown here. Equal entries are not always repeated. Toxic doses and inconclusive results are not listed. Rule for the calls: active = survival T/C of 150% or more; inactive = T/C below 125% in these data.

System: CD2F1 mice, L1210 leukemia ip, survival T/C
Experiment: NCI In Vivo Anticancer Drug Screen. Data for tumor model L1210 Leukemia (intraperitoneal) in CD2F1 (CDF1) mice
Settings: endpoint: mean survival time, higher = longer survival
Method in brief: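 Mice carrying a transplanted tumor received test compound or vehicle alone. The value is the measurement in the treated group divided by that in the vehicle-treated control group.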

[1] = dose: 100.0 mg/kg/injection, schedule: Q04DX002 (ip), vehicle: saline with Tween-80
[2] = dose: 200.0 mg/kg/injection, schedule: Q04DX002 (ip), vehicle: saline with Tween-80
[3] = dose: 100.0 mg/kg/injection, schedule: Q04DX003 (ip), vehicle: saline with Tween-80
[4] = dose: 200.0 mg/kg/injection, schedule: Q04DX003 (ip), vehicle: saline with Tween-80
[5] = dose: 400.0 mg/kg/injection, schedule: Q04DX003 (ip), vehicle: saline with Tween-80
[6] = dose: 100.0 mg/kg/injection, schedule: Q01DX001 (ip), vehicle: saline with Tween-80
[7] = dose: 200.0 mg/kg/injection, schedule: Q01DX001 (ip), vehicle: saline with Tween-80
[8] = dose: 400.0 mg/kg/injection, schedule: Q01DX001 (ip), vehicle: saline with Tween-80
[9] = dose: 100.0 mg/kg/injection, schedule: Q01DX009 (ip), vehicle: saline with Tween-80
[10] = dose: 200.0 mg/kg/injection, schedule: Q01DX009 (ip), vehicle: saline with Tween-80
[11] = dose: 400.0 mg/kg/injection, schedule: Q01DX009 (ip), vehicle: saline with Tween-80
[12] = dose: 25.0 mg/kg/injection, schedule: Q01DX009 (ip), vehicle: saline with Tween-80

Measured: T/C

CN(C)c1ncnc(-c2ccncc2)n1
inactive: [1] 88 % of control | [2] 100 % of control

CC(C)(C)NC(=O)CCC1C2C=CC(C2)C1C#N (centres undefined)
inactive: [3] 93 % of control | [4] 91 % of control | [5] 98 % of control

CCN(CC)CCOc1ccc(C2=CC3(CCCCC3)c3ccccc32)cc1
inactive: dose: 12.5 mg/kg/injection, schedule: Q04DX002 (ip), vehicle: saline with Tween-80 106 % of control | dose: 25.0 mg/kg/injection, schedule: Q04DX002 (ip), vehicle: saline with Tween-80 98 % of control

CCc1ccc(NC(=O)c2ccc(C(=O)Nc3ccc(CC)cc3)cc2)cc1
inactive: dose: 100.0 mg/kg/injection, schedule: Q01DX001 (ip), vehicle: saline 95 % of control | dose: 200.0 mg/kg/injection, schedule: Q01DX001 (ip), vehicle: saline 95 % of control | dose: 400.0 mg/kg/injection, schedule: Q01DX001 (ip), vehicle: saline 104 % of control

O=C(Cl)C1CCCCC1
inactive: [6] 93 % of control | [7] 97 % of control | [8] 89 % of control

CC1=[C-]C=CS1=O.[C-]#[O+].[C-]#[O+].[C-]#[O+].[Mo].[c-]1[c-][c-][cH-][c-]1 (centres undefined)
inactive: dose: 9.38 mg/kg/injection, schedule: Q04DX002 (ip), vehicle: saline with Tween-80 96 % of control | dose: 18.7 mg/kg/injection, schedule: Q04DX002 (ip), vehicle: saline with Tween-80 96 % of control | dose: 37.5 mg/kg/injection, schedule: Q04DX002 (ip), vehicle: saline with Tween-80 100 % of control

O=C(O)CCC1C2C=CC(C2)C1C(=O)O (centres undefined)
inactive: [3] 96 % of control | [4] 96 % of control | [5] 98 % of control

Cc1ccc([N+](=O)[O-])cc1NC(=O)Nc1cc([N+](=O)[O-])ccc1O
inactive: [9] 91 % of control | [10] 96 % of control | [11] 107 % of control

O=C1c2ccccc2C(=O)c2c(O)ccc(O)c21
inactive: dose: 50.0 mg/kg/injection, schedule: Q01DX009 (ip), vehicle: saline 106 % of control | [6] 88 % of control | dose: 100.0 mg/kg/injection, schedule: Q01DX009 (ip), vehicle: saline 97 % of control | [3] 94 % of control | [7] 91 % of control | dose: 200.0 mg/kg/injection, schedule: Q01DX009 (ip), vehicle: saline 109 % of control | [4] 102 % of control | [8] 86 % of control | [5] 103 % of control

O=c1[nH]c2cc(Br)ccc2c2ccc(Br)cc12
inactive: dose: 50.0 mg/kg/injection, schedule: Q01DX001 (ip), vehicle: carboxymethylcellulose (CMC) 95 % of control | dose: 100.0 mg/kg/injection, schedule: Q01DX001 (ip), vehicle: carboxymethylcellulose (CMC) 98 % of control | dose: 200.0 mg/kg/injection, schedule: Q01DX001 (ip), vehicle: carboxymethylcellulose (CMC) 101 % of control | dose: 400.0 mg/kg/injection, schedule: Q01DX001 (ip), vehicle: carboxymethylcellulose (CMC) 104 % of control

FC(F)(F)C1(C(F)(F)F)C/C(=N/Nc2ccccc2)CO1
inactive: dose: 100.0 mg/kg/injection, schedule: Q04DX003 (ip), vehicle: other 101 % of control | dose: 200.0 mg/kg/injection, schedule: Q04DX003 (ip), vehicle: other 101 % of control | dose: 400.0 mg/kg/injection, schedule: Q04DX003 (ip), vehicle: other 101 % of control

CN1C(=O)C2C(N=C(c3ccccc3)N2O)N(C)C1=O (centres undefined)
inactive: dose: 12.5 mg/kg/injection, schedule: Q01DX005 (ip), vehicle: other 93 % of control | dose: 25.0 mg/kg/injection, schedule: Q01DX005 (ip), vehicle: other 93 % of control | dose: 50.0 mg/kg/injection, schedule: Q01DX005 (ip), vehicle: other 90 % of control | dose: 100.0 mg/kg/injection, schedule: Q01DX005 (ip), vehicle: other 97 % of control | dose: 200.0 mg/kg/injection, schedule: Q01DX005 (ip), vehicle: other 98 % of control

CCCCCCCCCCCCCCCCCC(=O)NNCCO
inactive: [9] 89 % of control | [3] 94 % of control | [10] 89 % of control | [4] 93 % of control | [5] 91 % of control

[NH2-].[NH2-].[NH2-].[NH2-].[Pt+4]
inactive: [12] 92 % of control | dose: 100.0 mg/kg/injection, schedule: Q04DX003 (ip), vehicle: saline 98 % of control

C[Si](C)(C)OC1(C#N)C=CC(=O)C=C1
inactive: dose: 1.56 mg/kg/injection, schedule: Q01DX001 (ip), vehicle: saline with Tween-80 103 % of control | dose: 3.13 mg/kg/injection, schedule: Q01DX001 (ip), vehicle: saline with Tween-80 100 % of control | dose: 6.25 mg/kg/injection, schedule: Q01DX001 (ip), vehicle: saline with Tween-80 92 % of control and 95 % of control

CC(C)=CCCc1ccc2c(c1)C(=O)c1ccccc1C2=O
inactive: [1] 88 % of control | [2] 92 % of control | dose: 400.0 mg/kg/injection, schedule: Q04DX002 (ip), vehicle: saline with Tween-80 96 % of control

Nc1ccc(CNc2ccccc2)cc1
inactive: dose: 100.0 mg/kg/injection, schedule: Q04DX002 (ip), vehicle: other 95 % of control and 103 % of control | dose: 200.0 mg/kg/injection, schedule: Q04DX002 (ip), vehicle: other 100 % of control and 106 % of control | dose: 400.0 mg/kg/injection, schedule: Q04DX002 (ip), vehicle: other 118 % of control and 91 % of control

Cc1ccc2c(/C=C/c3ccc(N(C)C)cc3)ccnc2c1
inactive: dose: 100.0 mg/kg/injection, schedule: Q04DX003 (ip), vehicle: Klucel (hydroxypropylcellulose) (HPC) 93 % of control | dose: 200.0 mg/kg/injection, schedule: Q04DX003 (ip), vehicle: Klucel (hydroxypropylcellulose) (HPC) 104 % of control | dose: 400.0 mg/kg/injection, schedule: Q04DX003 (ip), vehicle: Klucel (hydroxypropylcellulose) (HPC) 116 % of control

C[C@H](CCC[C@H](C)OS(=O)(=O)c1ccccc1)OS(=O)(=O)c1ccccc1
inactive: dose: 12.5 mg/kg/injection, schedule: Q01DX009 (ip), vehicle: saline with Tween-80 101 % of control and 110 % of control | [11] 114 % of control and 104 % of control

O=C(COCC(=O)N/N=C/c1ccc(Cl)c(Cl)c1)N/N=C/c1ccc(Cl)c(Cl)c1
inactive: [6] 94 % of control | [7] 94 % of control | [8] 96 % of control

CN(C)c1ccc(/C=C/c2ccncc2)cc1
inactive: [9] 95 % of control | [10] 96 % of control | [11] 89 % of control

ClC1=C(Cl)C2(Cl)C=CC1(Cl)C2(Cl)Cl
inactive: [12] 97 % of control | dose: 50.0 mg/kg/injection, schedule: Q01DX009 (ip), vehicle: saline with Tween-80 90 % of control | [3] 105 % of control

CSC(=O)NC(=O)c1ccccc1
inactive: [3] 100 % of control | [4] 103 % of control | [5] 105 % of control

Nc1nc2c(c(=O)[nH]1)CN(c1ccc(Cl)cc1)C2
inactive: dose: 75.0 mg/kg/injection, schedule: Q01DX001 (ip), vehicle: saline 98 % of control | dose: 150.0 mg/kg/injection, schedule: Q01DX001 (ip), vehicle: saline 104 % of control | dose: 300.0 mg/kg/injection, schedule: Q01DX001 (ip), vehicle: saline 93 % of control

CCOC(=O)c1c(C)cc(O)cc1O
inactive: [3] 95 % of control | [4] 95 % of control | [5] 95 % of control

CN(C)/N=N\c1c(C(N)=O)ncn1C1OC(CO)C(O)C1O (centres undefined)
inactive: dose: 100.0 mg/kg/injection, schedule: Q01DX005 (ip), vehicle: saline 104 % of control | dose: 200.0 mg/kg/injection, schedule: Q01DX005 (ip), vehicle: saline 95 % of control
